# Measured values from US20110177026A1 (priority 2005, published 2011).
# Where two headings read alike, the source gives them in different places.
# What was measured:
# Format in all cases: cell-based
# [1] = test system: Vesicular stomatitis virus (VSV) Indiana serotype
# [2] = test system: BVDV cytopathic strain NADL
# [3] = test system: BVDV strain NADL; experiment: microbe, parasite or virus in culture
# [4] = VSV-infected cells at MOI=0.01, concentration of 1 mM
# [5] = cells infected with VSV at MOI>1
Structure (SMILES),"antiviral activity [1, 4]","antiviral activity [1, 5]",antiviral activity [2],inhibition of BVDV replication [3],"EC50 ([3]; Bovine viral diarrhea virus isolates and strains, MDBK, read-out: Dm)"
"O[C@H]1[C@H](O)[C@@H](O)CN2CC[C@H](O)[C@H]12 [CTS, Castanospermine]",exhibited antiviral activity,none,exhibited antiviral activity,–,–
"CC1OC(OC2C(CO)OC(OC3C(CO)OC(O)C(O)C3O)C(O)C2O)C(O)C(O)C1NC1C=C(CO)C(O)C(O)C1O [acarbose, O-4,6-dideoxy-4-[[(1S,4R,5S,6S)-4,5,6-trihydroxy-3-(hydroxymethyl)-2-cyclohexen-1-yl]amino]-α-D-glucopyranosyl-(1→4)-O-α-D-glucopyranosyl-(1→4)-D-glucose]",exhibited antiviral activity,none,only the positive control CTS exhibited antiviral activity,potent antiviral agents that inhibit BVDV replication,–
"OCCN1CC(O)C(O)C(O)C1CO (stereo not drawn) [miglitol, 3,4,5-piperidinetriol, 1-(2-hydroxyethyl)-2-(hydroxymethyl)-, [2R-(2α, 3β,4α,5β)]]",exhibited antiviral activity,none,only the positive control CTS exhibited antiviral activity,potent antiviral agents that inhibit BVDV replication,221 µM
